According to US20210077469A1, “PHARMACEUTICAL COMBINATIONS OF EGFR INHIBITORS AND METHODS OF USE THEREOF” (DANA-FARBER CANCER INSTITUTE, INC., priority 2018, published 2021):

Molecular target: L858R/T790M EGFR (Homo sapiens, UniProt P00533, L858R/T790M)
Settings: Ba/F3 cells harboring L858R/T790M EGFR treated with inhibitor; lysates immunoprecipitated by biotinylated Compound A; FIG. 2A
Description: 15-20 μg of proteins lysates were aliquoted and loaded at the same time as the pull down assay to ensure the presence of EGFR protein, phospho-EGFR activity. Tubulin expression was assessed to ensure even loading of gels. 500 μg of protein was incubated with either biotinylated-linker (control) or with biotinylated Compound A for two hours before 50% NeutrAvidin agarose beads (Thermo Fisher Scientific) slurry was added for an hour to precipitate the EGFR that was associated to the biotinylated allosteric inhibitor. The beads were then washed three times with PBS containing 1% IGEPAL and an insulin syringe was used to remove extraneous buffer before the samples were suspended in 2×SDS sample preparation buffer for Western blotting analyses. All experiments were performed at least three times.

Chain of L858R/T790M EGFR (P00533 25-1210 T790M/L858R): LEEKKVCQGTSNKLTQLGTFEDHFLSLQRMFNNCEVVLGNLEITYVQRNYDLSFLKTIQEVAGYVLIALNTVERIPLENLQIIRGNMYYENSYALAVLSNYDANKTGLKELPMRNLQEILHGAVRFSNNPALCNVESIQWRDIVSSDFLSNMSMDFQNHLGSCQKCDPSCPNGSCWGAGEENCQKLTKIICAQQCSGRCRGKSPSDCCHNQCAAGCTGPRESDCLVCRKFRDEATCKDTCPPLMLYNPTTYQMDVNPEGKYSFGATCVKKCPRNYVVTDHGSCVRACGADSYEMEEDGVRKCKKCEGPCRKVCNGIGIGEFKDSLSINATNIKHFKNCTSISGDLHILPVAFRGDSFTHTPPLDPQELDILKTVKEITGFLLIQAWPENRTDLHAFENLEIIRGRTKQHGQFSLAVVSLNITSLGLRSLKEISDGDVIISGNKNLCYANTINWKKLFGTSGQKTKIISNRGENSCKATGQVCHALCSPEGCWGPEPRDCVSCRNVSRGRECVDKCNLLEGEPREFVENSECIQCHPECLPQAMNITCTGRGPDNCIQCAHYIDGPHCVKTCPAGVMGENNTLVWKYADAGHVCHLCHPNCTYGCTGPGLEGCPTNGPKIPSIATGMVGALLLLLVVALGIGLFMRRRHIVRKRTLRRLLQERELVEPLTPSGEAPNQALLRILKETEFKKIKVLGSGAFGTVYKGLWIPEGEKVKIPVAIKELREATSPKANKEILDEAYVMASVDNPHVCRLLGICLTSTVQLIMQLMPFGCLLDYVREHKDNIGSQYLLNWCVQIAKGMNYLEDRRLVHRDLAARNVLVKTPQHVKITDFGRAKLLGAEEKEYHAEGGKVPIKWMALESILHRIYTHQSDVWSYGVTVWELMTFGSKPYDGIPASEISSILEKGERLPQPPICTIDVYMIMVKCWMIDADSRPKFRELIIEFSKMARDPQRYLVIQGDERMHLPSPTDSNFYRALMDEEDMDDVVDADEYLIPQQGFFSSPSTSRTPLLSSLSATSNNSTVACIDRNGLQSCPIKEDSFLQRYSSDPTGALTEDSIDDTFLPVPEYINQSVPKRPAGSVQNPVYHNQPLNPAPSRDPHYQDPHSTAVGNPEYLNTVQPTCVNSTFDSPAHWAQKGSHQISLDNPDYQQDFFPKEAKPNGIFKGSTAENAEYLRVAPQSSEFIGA

**Q.** How did the “interference with binding of Compound A to EGFR” value turn out when C=CC(=O)Nc1cccc(Oc2nc(Nc3ccc(N4CCN(C)CC4)cc3OC)ncc2Cl)c1 [WZ-4002] was run?
**A.** interfere
